The subject of experiment [1] is SARS-CoV-2 pseudotyped HIV-1 virions. The conditions noted are these: 72 h.
Experiment [2] deals with SARS-CoV-2. As to conditions: 3 h.
Experiment [3] has as its system SARS-CoV-2 pseudotyped HIV-1 virions, B.1.617.2 (Delta).
In experiment [4] the test system is SARS-CoV-2 pseudotyped HIV-1 virions, P.1 (Gamma).
Experiment [5] relates to SARS-CoV-2 pseudotyped HIV-1 virions, B.1.427 (California).
Experiment [6] concerns SARS-CoV-2 pseudotyped HIV-1 virions, B.1.1.7 (Alpha).
Experiment [7] has as its system SARS-CoV-2 pseudotyped HIV-1 virions, B.1.351 (Beta).
Experiment [8] concerns SARS-CoV-2. The conditions noted are these: hamster, in vivo.

*1 amine or outer side, *2 acyl side, *3 side chain or, on linkers, in order; H or OH if unused. Where a SMILES comes first, the peptide text is derived from it. Bridges are numbered along the chain shown (N, C = ends). Roman numbers before positions name the chains, in order. [ ]: non-standard residue; d: D form. X1 = O=C(CCOCCOCCOCCOCCOCCOCCOCCOCCOCCOCCOCCOCCOCCOCCOCCOCCOCCOCCOCCOCCOCCOCCOCCOCCn1cc(CCC(=O)[*:2])nn1)[*:1]; X3 = O=C(CCc1cn(CCOCCOCCOCCOCCOCCOCCOCCOCCOCCOCCOCCOCCOCCOCCOCCOCCOCCOCCOCCOCCOCCOCCOCCOCCC(=O)[*:2])nn1)[*:1]; TATB = O=C(C[*:1])N1CN(C(=O)C[*:2])CN(C(=O)C[*:3])C1; X2 = C(c1nc(C[*:2])nc(C[*:3])n1)[*:1]; hArg = N=C(N)NCCCC[C@H](N)C(=O)O; tBuAla = CC(C)(C)C[C@H](N)C(=O)O; Agb = N=C(N)NCC[C@H](N)C(=O)O

In the case of `CC(=O)N[C@H]1CSCC(=O)N2CN3CN(C2)C(=O)CSC[C@H](NC(=O)[C@H](C(C)C)NC(=O)[C@@H]2CCCN2C(=O)[C@H](CC(N)=O)NC(=O)[C@H](CC(=O)O)NC(=O)[C@@H]2CCCN2C(=O)[C@H](CC(N)=O)NC(=O)[C@H](C)NC1=O)C(=O)N[C@@H](CCCNC(=N)N)C(=O)N[C@@H](Cc1ccccc1)C(=O)N[C@@H](Cc1ccc(O)cc1)C(=O)N[C@H](C(=O)N[C@@H](CCCCNC(=O)CCOCCOCCOCCOCCOCCOCCOCCOCCOCCOCCOCCOCCOCCOCCOCCOCCOCCOCCOCCOCCOCCOCCOCCOCCn1cc(CCC(=O)NCCCC[C@H](NC(=O)[C@@H]2CSCc4nc5nc(n4)CSC[C@H](NC(C)=O)C(=O)N4CCC[C@H]4C(=O)N[C@@H](Cc4ccc(O)cc4)C(=O)N[C@@H](C(C)C)C(=O)N[C@@H](C)C(=O)NCC(=O)N[C@@H](CCCCNC(=N)N)C(=O)N[C@H](C)C(=O)N[C@@H]([C@@H](C)O)C(=O)N[C@@H](CSC5)C(=O)N[C@@H](CC(C)C)C(=O)N[C@@H](CC(C)(C)C)C(=O)N2)C(N)=O)nn1)C(N)=O)CSCC3=O` [BCY18786] (I: Ac-CANPDNPVCRFYCK-NH2 / II: Ac-CPYVAG[hArg][dA]TCL[tBuAla]CK-NH2; linker I:1-I:9-I:13 via TATB; linker I:14-II:14 via X1; linker II:1-II:10-II:13 via X2), the IC50 was found to be 0.2 nM in experiment [1]; 246 nM in the experiment with SARS-CoV-2 [2]; 437 nM in experiment [3]; 140 nM in experiment [4]; 93 nM in experiment [5]; 6 nM in experiment [6]. Also, the IC50 in experiment [7] is 272 nM.
`CC[C@H](C)[C@@H]1NC(=O)[C@H](CCSC)NC(=O)[C@@H]2CSCC(=O)N3CN(CN(C3)C(=O)CSC[C@@H](C(=O)N[C@@H](CCCCNC(=O)CCOCCOCCOCCOCCOCCOCCOCCOCCOCCOCCOCCOCCOCCOCCOCCOCCOCCOCCOCCOCCOCCOCCOCCOCCn3cc(CCC(=O)NCCCC[C@H](NC(=O)[C@@H]4CSCc5nc6nc(n5)CSC[C@H](NC(C)=O)C(=O)N5CCC[C@H]5C(=O)N[C@@H](Cc5ccc(O)cc5)C(=O)N[C@@H](C(C)C)C(=O)N[C@@H](C)C(=O)NCC(=O)N[C@@H](CCNC(=N)N)C(=O)N[C@H](C)C(=O)N[C@@H]([C@@H](C)O)C(=O)N[C@@H](CSC6)C(=O)N[C@@H](CC(C)C)C(=O)N[C@@H](CC(C)(C)C)C(=O)N4)C(N)=O)nn3)C(N)=O)NC(=O)[C@H](C)NC1=O)C(=O)CSC[C@H](NC(C)=O)C(=O)N[C@@H]([C@@H](C)CC)C(=O)N1CCC[C@H]1C(=O)N[C@@H](CC(C)C)C(=O)N[C@@H](CC(=O)O)C(=O)N[C@@H](Cc1c[nH]c3ccccc13)C(=O)N[C@@H]([C@@H](C)O)C(=O)N2` [BCY18656] showed an IC50 in the experiment on SARS-CoV-2 [2] of 0.314 nM. Moreover, in the experiment with SARS-CoV-2 [8], the “viral load of SARS-CoV-2” value is given as “reduces the viral load”.
In experiment [1], `CC(=O)N[C@@H](C)C(=O)N[C@H]1CSCC(=O)N2CN3CN(C2)C(=O)CSC[C@H](NC(=O)[C@H](C(C)C)NC(=O)[C@@H]2CCCN2C(=O)[C@H](CC(N)=O)NC(=O)[C@H](CC(=O)O)NC(=O)[C@@H]2CCCN2C(=O)[C@H](CO)NC(=O)[C@H](C)NC1=O)C(=O)N[C@@H](CCCNC(=N)N)C(=O)N[C@@H](Cc1ccccc1)C(=O)N[C@@H](Cc1ccc(O)cc1)C(=O)N[C@H](C(=O)N[C@@H](C)C(=O)N[C@@H](CCCCNC(=O)CCc1cn(CCOCCOCCOCCOCCOCCOCCOCCOCCOCCOCCOCCOCCOCCOCCOCCOCCOCCOCCOCCOCCOCCOCCOCCOCCC(=O)NCCCC[C@H](NC(=O)[C@@H]2CSCc4nc5nc(n4)CSC[C@H](NC(C)=O)C(=O)N4CCC[C@H]4C(=O)N[C@@H](Cc4ccc(O)cc4)C(=O)N[C@@H](C(C)C)C(=O)N[C@@H](C)C(=O)NCC(=O)N[C@@H](CCNC(=N)N)C(=O)N[C@H](C)C(=O)N[C@@H]([C@@H](C)O)C(=O)N[C@@H](CSC5)C(=O)N[C@@H](CC(C)C)C(=O)N[C@@H](CC(C)(C)C)C(=O)N2)C(N)=O)nn1)C(N)=O)CSCC3=O` [BCY17191] (I: Ac-ACASPDNPVCRFYCAK-NH2 / II: Ac-CPYVAG[Agb][dA]TCL[tBuAla]CK-NH2; linker I:2-I:10-I:14 via TATB; linker I:16-II:14 via X3; linker II:1-II:10-II:13 via X2) had an IC50 of 10.6 nM.
Take `CC(=O)N[C@H]1CSCc2nc3nc(n2)CSC[C@H](NC(=O)[C@H]([C@@H](C)O)NC(=O)[C@@H](C)NC(=O)[C@H](CCNC(=N)N)NC(=O)CNC(=O)[C@H](C)NC(=O)[C@H](C(C)C)NC(=O)[C@H](Cc2ccc(O)cc2)NC(=O)[C@@H]2CCCN2C1=O)C(=O)N[C@@H](CC(C)C)C(=O)N[C@@H](CC(C)(C)C)C(=O)N[C@H](C(=O)N[C@@H](CCCCNC(=O)CCOCCOCCOCCOCCOCCOCCOCCOCCOCCOCCOCCOCCOCCOCCOCCOCCOCCOCCOCCOCCOCCOCCOCCOCCn1cc(CCC(=O)NCCCC[C@H](NC(=O)[C@@H]2CSCc4nc5nc(n4)CSC[C@H](NC(C)=O)C(=O)N4CCC[C@H]4C(=O)N[C@@H](Cc4ccc(O)cc4)C(=O)N[C@@H](C(C)C)C(=O)N[C@@H](C)C(=O)NCC(=O)N[C@@H](CCNC(=N)N)C(=O)N[C@H](C)C(=O)N[C@@H]([C@@H](C)O)C(=O)N[C@@H](CSC5)C(=O)N[C@@H](CC(C)C)C(=O)N[C@@H](CC(C)(C)C)C(=O)N2)C(N)=O)nn1)C(N)=O)CSC3` [BCY17196] (I: Ac-CPYVAG[Agb][dA]TCL[tBuAla]CK-NH2 / II: Ac-CPYVAG[Agb][dA]TCL[tBuAla]CK-NH2; linker I:1-I:10-I:13, II:1-II:10-II:13 via X2; linker I:14-II:14 via X1): in experiment [1], the IC50 is 15300 nM.

(Values after patent US20240108737A1, “ANTI-INFECTIVE BICYCLIC PEPTIDE LIGANDS” (priority 2021, published 2024).)
